These results are taken from paper PMC8476055, “Synthesis and Biological Activity of Triterpene–Coumarin Conjugates” (Journal of Natural Products, 2021).

For orientation: IC50 means the concentration that inhibits the measured activity by half. As usually defined, the melting point is the temperature of the solid-liquid transition.

The subject of data set [1] is B16–F10 murine melanoma cells. In words: MTT cell proliferation assay, B16–F10 cells. The data set is classed as cell-based. As to conditions: Mus musculus, 72 h treatment, untreated control = 100% viability, read-out: IC50, growth inhibition of B16–F10 cells. The method, then: (§1) These studies were performed using a 3-(4,5-dimethylthiazol-2-yl)-2,5-diphenyltetrazolium bromide (MTT) assay, with increasing concentration levels of each compound (0–200 μg/mL). Cell viability was determined after treatment for 72 h, by absorption of a formazan dye.
(§2) […] ATTC HTB-38), Hep G2 human hepatocyte carcinoma cells (ECACC 85011430), nontumor human epithelial lung fibroblast cells HPF (ScienCell catalog (cat.) no. 3300), nontumor rat ileum cells IEC-18 (ECACC no. 88011801), and nontumor human embryo liver cells (ECACC 89121403) were cultured in DMEM medium supplemented with 2 mM glutamine, 10% heat-inactivated fetal bovine serum (FCS), 10.000 units/mL penicillin, and […]. These cells were incubated at 37 °C in an atmosphere of 5% CO2 and 95% humidity. The culture media were changed every 48 h, and the confluent cultures were separated with a trypsin solution (0.25% EDTA). Subconfluent monolayer cells were used in all experiments. All cell lines used were provided by the cell bank of the University of Granada (Spain).
(§3) The effect of the synthesized compounds on the viability of tumor cells was assessed using an MTT assay, based on the ability of living cells to cleave the tetrazolium ring, thus producing formazan, which absorbs at 570 nm. […] For an evaluation of the cytotoxic effects of these compounds, the cells were seeded in 96-well plates at an initial density of 5 × 10^3 B16–F10 cells, 6 × 10^3 HT29 cells, 15 × 10^3 Hep G2 cells, 8 × 10^3 HPF cells, 15 × 10^3 IEC-18 cells, and 11 × 10^3 WRL68 cells, per well. After incubation for 24 h, the cells were treated with the synthesized compounds in triplicate, at different concentrations (0–200 μg/mL), and incubated for 72 h. Thereafter, 100 μL of MTT solution (0.5 mg/mL) were added to each well. After 2 h of incubation, the cells were washed twice with phosphate buffered saline (PBS), and the formazan was resuspended in 100 μL of DMSO. Relative cell viability, with respect to untreated control cells, was measured by absorbance at 550 nm on an ELISA plate reader (Tecan Sunrise MR20-301, TECAN, Austria). […] These experiments were measured and compared to the control after 72 h of treatment.
On the technique in general: Formazan colour is commonly taken as a measure of viable cells.

For data set [2], the system named is HT29 human colon adenocarcinoma cells. In words: MTT cell proliferation assay, HT29 cells. Format: cell-based. As to conditions: HT-29, 72 h treatment, untreated control = 100% viability, read-out: IC50, growth inhibition of HT29 cells. The method, then:
as §1, §2, §3

Data set [3] concerns Hep G2 human hepatocyte carcinoma cells. In words: MTT cell proliferation assay, Hep G2 cells. As to conditions: HepG2, 72 h treatment, untreated control = 100% viability, read-out: IC50, growth inhibition of Hep G2 cells. Format: cell-based. The method, then:
as §1, §2, §3

Data set [4] has as its system B16-F10, HT29, and Hep G2 cancer cell lines. Briefly: MTT assay, statements over the three cancer cell lines. The data set is classed as cell-based. The following applies: 72 h, read-out: IC50 (cytotoxicity), cell line not distinguished. The method, then:
These studies were performed using a 3-(4,5-dimethylthiazol-2-yl)-2,5-diphenyltetrazolium bromide (MTT) assay, with increasing concentration levels of each compound (0–200 μg/mL). Cell viability was determined after treatment for 72 h, by absorption of a formazan dye. […] In these three cancer cell lines, the concentration of the compounds that reduced the response by half (IC50) was determined (Table 1).
The effect of the synthesized compounds on the viability of tumor cells was assessed using an MTT assay, based on the ability of living cells to cleave the tetrazolium ring, thus producing formazan, which absorbs at 570 nm. The MA conjugates (1–12) were assayed against the selected cancer cell lines. For an evaluation of the cytotoxic effects of these compounds, the cells were seeded in 96-well plates at an initial density of 5 × 10^3 B16–F10 cells, 6 × 10^3 HT29 cells, 15 × 10^3 Hep G2 cells, 8 × 10^3 HPF cells, 15 × 10^3 IEC-18 cells, and 11 × 10^3 WRL68 cells, per well. After incubation for 24 h, the cells were treated with the synthesized compounds in triplicate, at different concentrations (0–200 μg/mL), and incubated for 72 h. […] Relative cell viability, with respect to untreated control cells, was measured by absorbance at 550 nm on an ELISA plate reader (Tecan Sunrise MR20-301, TECAN, Austria). […] These experiments were measured and compared to the control after 72 h of treatment.

Each structure is given as a SMILES string.

On to `O=C(O)Cc1cc(=O)oc2cc(O)ccc12` [HCAA, 7-hydroxycoumarinyl-4-acetic acid, reference compound], for which the IC50 in data set [1], in data set [2] and in data set [3] was > 10 µM throughout.
Take `O=C(O)c1cc2ccccc2oc1=O` [C3CA, coumarin-3-carboxylic acid, reference compound]: the 50% inhibitory concentration (IC50) in data set [1], in data set [2] and in data set [3] was > 10 µM throughout.
Take `CC1(C)CC[C@]2(C(=O)NCCCCCCNC(=O)c3cc4ccccc4oc3=O)CC[C@]3(C)C(=CC[C@@H]4[C@@]5(C)C[C@@H](O)[C@H](O)C(C)(C)[C@@H]5CC[C@]43C)[C@@H]2C1` [Compound 2, 2α,3β-Dihydroxy-N-(6′-(2″-oxo-2″H-chromene-3″-carboxamido)hexyl)olean-12-en-28-amide]: the melting point was in the range of 73 to 75 °C. Moreover, the half-maximal inhibitory concentration (IC50) in data set [1] is > 10 µM. Besides, in data set [2], the IC50 was > 10 µM. The 50% inhibitory concentration (IC50) in data set [3] was > 10 µM.
Compound `CC1(C)CC[C@]2(C(=O)NCCCCCCCCCCNC(=O)/C=C/c3ccc(O)cc3)CC[C@]3(C)C(=CC[C@@H]4[C@@]5(C)C[C@@H](O)[C@H](O)C(C)(C)[C@@H]5CC[C@]43C)[C@@H]2C1` [Compound 9, 2α,3β-Dihydroxy-N-(10′-((E)-3″-(4‴-hydroxyphenyl)acrylamido)decyl)olean-12-en-28-amide] displayed a melting point of 104 to 106 °C. Further, the IC50 in data set [1] was > 10 µM. Also, the half-inhibitory concentration (IC50) in data set [2] is > 10 µM. Besides, the IC50 in data set [3] is > 10 µM.
Take `Cc1cc(=O)oc2cc(NC(=O)[C@]34CCC(C)(C)C[C@H]3C3=CC[C@@H]5[C@@]6(C)C[C@@H](O)[C@H](O)C(C)(C)[C@@H]6CC[C@@]5(C)[C@]3(C)CC4)ccc12` [Compound 11, 2α,3β-dihydroxy-N-(4-methyl-2-oxo-2H-chromen-7-yl)-olean-12-en-28-amide]: the IC50 in data set [1], in data set [2], in data set [3] and in data set [4] was > 10 µM each time.
In turn, `CC1(C)CC[C@]2(C(=O)NCCCCCCCCCCNC(=O)Cc3cc(=O)oc4cc(O)ccc34)CC[C@]3(C)C(=CC[C@@H]4[C@@]5(C)C[C@@H](O)[C@H](O)C(C)(C)[C@@H]5CC[C@]43C)[C@@H]2C1` [Compound 6, 2α,3β-Dihydroxy-N-(10′-(2″-(7‴-hydroxy-2‴-oxo-2‴H-chromen-4‴-yl)acetamido)decyl)olean-12-en-28-amide] returned a melting point of 120 to 122 °C. Besides, in data set [1], the IC50 is > 10 µM. In addition, the IC50 in data set [2] was > 10 µM. In addition, the IC50 in data set [3] is > 10 µM.
For the compound `Cc1cc(=O)oc2cc(NC(=O)[C@]34CCC(C)(C)C[C@H]3C3=CC[C@@H]5[C@@]6(C)C[C@@H](OC(=O)c7cc8ccccc8oc7=O)[C@H](OC(=O)c7cc8ccccc8oc7=O)C(C)(C)[C@@H]6CC[C@@]5(C)[C@]3(C)CC4)ccc12` [Compound 12, N-(4‴-Methyl-2‴-oxo-2‴H-chromen-7‴-yl)-2α,3β-bis((2′-oxo-2′H-chromene-3′-carbonyl)oxy)-olean-12-en-28-amide], the melting point lay in the range of 206 to 208 °C. Further, in data set [1], the half-inhibitory concentration (IC50) is > 10 µM. In addition, the half-maximal inhibitory concentration (IC50) in data set [2] was > 10 µM. Further, the concentration for half-maximal inhibition (IC50) in data set [3] is > 10 µM. The concentration for half-maximal inhibition (IC50) in data set [4] was > 10 µM.
Regarding `O=C(O)/C=C/c1ccc(O)cc1` [PCA, p-coumaric acid, reference compound], the IC50 in data set [1], in data set [2] and in data set [3] was > 10 µM throughout.
The compound `CC1(C)CC[C@]2(C(=O)NCCCCCCNC(=O)/C=C/c3ccc(O)cc3)CC[C@]3(C)C(=CC[C@@H]4[C@@]5(C)C[C@@H](O)[C@H](O)C(C)(C)[C@@H]5CC[C@]43C)[C@@H]2C1` [Compound 8, 2α,3β-Dihydroxy-N-(6′-((E)-3″-(4‴-hydroxyphenyl)acrylamido)hexyl)olean-12-en-28-amide] yielded a melting point of 76 to 78 °C. Also, the half-inhibitory concentration (IC50) in data set [1] was > 10 µM. The IC50 in data set [2] was > 10 µM. In addition, in data set [3], the IC50 is > 10 µM.
Consider `CC1(C)CC[C@]2(C(=O)NCCCCCCNC(=O)Cc3cc(=O)oc4cc(O)ccc34)CC[C@]3(C)C(=CC[C@@H]4[C@@]5(C)C[C@@H](O)[C@H](O)C(C)(C)[C@@H]5CC[C@]43C)[C@@H]2C1` [Compound 5, 2α,3β-Dihydroxy-N-(6′-(2″-(7‴-hydroxy-2‴-oxo-2‴H-chromen-4‴-yl)acetamido)hexyl)olean-12-en-28-amide], for which the melting point fell in the range of 139 to 141 °C. The half-maximal inhibitory concentration (IC50) in data set [1] was > 10 µM. Also, the IC50 in data set [2] is > 10 µM. Further, the IC50 in data set [3] was > 10 µM.
The compound `CC1(C)CC[C@]2(C(=O)NCCCCCCCCCCNC(=O)c3cc4ccccc4oc3=O)CC[C@]3(C)C(=CC[C@@H]4[C@@]5(C)C[C@@H](O)[C@H](O)C(C)(C)[C@@H]5CC[C@]43C)[C@@H]2C1` [Compound 3, 2α,3β-Dihydroxy-N-(10′-(2″-oxo-2″H-chromene-3″-carboxamido)decyl)olean-12-en-28-amide] registered a melting point of 86 to 88 °C. The IC50 in data set [1] is > 10 µM. In addition, the IC50 in data set [2] is > 10 µM. The IC50 in data set [3] was > 10 µM.
Take `CC1(C)CC[C@]2(C(=O)O)CC[C@]3(C)C(=CC[C@@H]4[C@@]5(C)C[C@@H](O)[C@H](O)C(C)(C)[C@@H]5CC[C@]43C)[C@@H]2C1` [MA (I), 2α,3β-dihydroxyolean-12-en-28-oic acid, reference compound]: the IC50 in data set [1], in data set [2] and in data set [3] was > 10 µM in each case.
